Assay results published in publication PMC9889419 (Pharmacological Reports, 2022).
Structures can show the parent of a compound that is named as a salt.

How the values were obtained:
BB (non-selective) = experiment: Radioligand binding; design: species or system rat; settings: 100 μM
Method: (§1) Radioligand binding. Radioligand binding assays were performed at Eurofins CEREP (France). The results are expressed as a percent of control specific binding (measured specific binding*100/control specific binding) and as a percent inhibition of control specific binding (100-(measured specific binding*100)/control specific binding) obtained in the presence of the test compounds. The IC50 values (concentration causing a half-maximal inhibition of control specific binding) and Hill coefficients (nH) were determined by non-linear regression analysis of the competition curves generated with mean replicate values using Hill equation curve fitting (Y = D + [A-D]/[1 + (C/C50)^nH], where Y = specific binding, A = left asymptote of the curve, D = right asymptote of the curve, C = compound concentration, C50 = IC50, and nH = slope factor). This analysis was performed using software developed at Cerep (Hill software) and validated by comparison with data generated by the commercial software SigmaPlot® 4.0 for Windows® (© 1997 by SPSS Inc.). The inhibition constants (Ki) were calculated using the Cheng Prusoff equation (Ki = IC50/[1 + L/KD], where L = concentration of radioligand in the assay, and KD = affinity of the radioligand for the receptor). A scatchard plot is used to determine the Kd.

Cl- channel (GABA-gated) = experiment: Radioligand binding; design: species or system rat; settings: 100 μM
Method: as §1

GABA (non-selective) = experiment: Radioligand binding; design: species or system rat; settings: 100 μM
Method: as §1

KV channel = experiment: Radioligand binding; design: species or system rat; settings: 100 μM
Method: as §1

P2X = experiment: Radioligand binding; design: species or system rat; settings: 100 μM
Method: as §1

P2Y = experiment: Radioligand binding; design: species or system rat; settings: 100 μM
Method: as §1

PCP = experiment: Radioligand binding; design: species or system rat; settings: 100 μM
Method: as §1

SKCa channel = experiment: Radioligand binding; design: species or system rat; settings: 100 μM
Method: as §1

CYP1A2 = target: T1, CYP1A2 (Homo sapiens, UniProt P05177); experiment: Human cytochrome P450 inhibition (human liver microsomes); type: in vitro ADME
T1 construct: tissue celsis F008085-CST; host or cells: human liver microsomes
T1 sequence (P05177 1-516): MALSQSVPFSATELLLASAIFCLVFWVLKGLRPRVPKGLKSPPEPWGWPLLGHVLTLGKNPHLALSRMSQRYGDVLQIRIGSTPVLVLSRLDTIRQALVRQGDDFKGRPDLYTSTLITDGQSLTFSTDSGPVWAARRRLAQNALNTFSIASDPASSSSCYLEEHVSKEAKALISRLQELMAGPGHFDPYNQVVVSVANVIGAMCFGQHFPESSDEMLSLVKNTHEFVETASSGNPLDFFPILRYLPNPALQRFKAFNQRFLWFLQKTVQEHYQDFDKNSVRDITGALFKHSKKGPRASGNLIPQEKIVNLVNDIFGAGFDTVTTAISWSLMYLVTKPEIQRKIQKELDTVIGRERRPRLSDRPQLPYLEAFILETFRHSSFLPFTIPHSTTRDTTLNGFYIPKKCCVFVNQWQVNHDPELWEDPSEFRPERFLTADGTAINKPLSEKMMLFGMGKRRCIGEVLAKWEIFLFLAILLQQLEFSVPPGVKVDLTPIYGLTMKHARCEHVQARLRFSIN
Method: (§2) The selective reactions utilized for each enzyme were as follows: CYP1A2—phenacetin deethylation, CYP2A6—coumarin 7-hydroxylation, CYP2B6—7-ethoxy-4-trifluoromethyl coumarin O-deethylation, CYP2C9—diclofenac 4-hydroxylation, CYP2C19—S-mephenytoin 4-hydroxylation, CYP2D6—bufuralol 1’-hydroxylation, CYP2E1—chlorzoxazone 6-hydroxylation, CYP3A4—testosterone 6β-hydroxylation. For inhibitory evaluation, human liver microsomes and the tested compound (added in methanol as a solvent) were incubated under aerobic conditions with cytochrome P450 isozyme-selective substrates and excess NADPH at 37 °C. Incubations were for time periods over which the reaction in the absence of the compound, were determined to be linear, and proportional to the protein concentration. The human liver microsomes used were selected from the bank of those commercially available to be especially rich in the amount of the cytochrome P450 isozyme under investigation. However, it is important to note that the microsomes contained all the other isozymes in addition, and if reaction/substrate was less than specific, the other isozymes may have contributed to a minor extent to the enzyme activity determined. Following incubation, the reaction was terminated, an internal standard added, the metabolic products extracted and separated by reverse phase HPLC. Each assay was performed in duplicate, and the mean value calculated. The HPLC elutions were monitored by UV absorbance for all CYP reactions except those for CYP2A6, CYP2B6 and CYP2D6 where fluorescence monitoring was employed. Quantification was by comparison with authentic metabolites.

CYP2C9 = target: T2, CYP2C9 (Homo sapiens, UniProt P11712); experiment: as above; type: in vitro ADME
T2 construct: from tissue; host or cells: human liver microsomes
T2 sequence (P11712 whole entry): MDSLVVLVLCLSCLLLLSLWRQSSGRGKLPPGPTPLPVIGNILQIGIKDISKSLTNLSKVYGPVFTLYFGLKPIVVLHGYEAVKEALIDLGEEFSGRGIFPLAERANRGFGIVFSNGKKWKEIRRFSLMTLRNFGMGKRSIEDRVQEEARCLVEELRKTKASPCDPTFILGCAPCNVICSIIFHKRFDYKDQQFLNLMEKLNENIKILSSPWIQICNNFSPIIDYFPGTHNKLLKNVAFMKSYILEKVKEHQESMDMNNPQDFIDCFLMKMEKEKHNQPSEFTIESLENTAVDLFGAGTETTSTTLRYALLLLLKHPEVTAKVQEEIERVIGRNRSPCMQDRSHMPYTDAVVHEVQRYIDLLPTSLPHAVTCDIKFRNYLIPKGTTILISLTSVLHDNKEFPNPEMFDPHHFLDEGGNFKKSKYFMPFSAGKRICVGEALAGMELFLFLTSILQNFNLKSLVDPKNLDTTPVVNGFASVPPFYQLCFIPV
Method: as §2

CYP2E1 = target: T3, CYP2E1 (Homo sapiens, UniProt P05181); experiment: as above; type: in vitro ADME
T3 construct: The human liver microsomes used were selected from the bank of those commercially available; from tissue; host or cells: human liver microsomes
T3 sequence (P05181 whole entry): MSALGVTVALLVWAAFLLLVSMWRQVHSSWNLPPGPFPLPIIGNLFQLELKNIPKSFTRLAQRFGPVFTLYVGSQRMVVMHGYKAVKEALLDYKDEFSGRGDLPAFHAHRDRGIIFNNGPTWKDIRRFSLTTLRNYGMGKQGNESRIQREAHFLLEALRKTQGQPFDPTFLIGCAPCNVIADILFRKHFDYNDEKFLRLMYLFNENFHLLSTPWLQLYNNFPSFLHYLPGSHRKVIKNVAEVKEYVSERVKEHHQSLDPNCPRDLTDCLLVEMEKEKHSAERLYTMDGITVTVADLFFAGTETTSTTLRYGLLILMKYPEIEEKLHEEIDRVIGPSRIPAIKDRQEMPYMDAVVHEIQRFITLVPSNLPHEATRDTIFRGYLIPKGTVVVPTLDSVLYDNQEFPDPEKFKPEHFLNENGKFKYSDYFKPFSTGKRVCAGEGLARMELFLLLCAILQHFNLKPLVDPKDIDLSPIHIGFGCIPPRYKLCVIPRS
Method: as §2

hNav1.4 sodium channel = target: T4, hNav1.4 sodium channel (Homo sapiens, UniProt P35499); experiment: Nav channel electrophysiology (IonWorks Quattro); type: cell-based
T4 construct: host or cells: CHO cells
T4 sequence (P35499 whole entry): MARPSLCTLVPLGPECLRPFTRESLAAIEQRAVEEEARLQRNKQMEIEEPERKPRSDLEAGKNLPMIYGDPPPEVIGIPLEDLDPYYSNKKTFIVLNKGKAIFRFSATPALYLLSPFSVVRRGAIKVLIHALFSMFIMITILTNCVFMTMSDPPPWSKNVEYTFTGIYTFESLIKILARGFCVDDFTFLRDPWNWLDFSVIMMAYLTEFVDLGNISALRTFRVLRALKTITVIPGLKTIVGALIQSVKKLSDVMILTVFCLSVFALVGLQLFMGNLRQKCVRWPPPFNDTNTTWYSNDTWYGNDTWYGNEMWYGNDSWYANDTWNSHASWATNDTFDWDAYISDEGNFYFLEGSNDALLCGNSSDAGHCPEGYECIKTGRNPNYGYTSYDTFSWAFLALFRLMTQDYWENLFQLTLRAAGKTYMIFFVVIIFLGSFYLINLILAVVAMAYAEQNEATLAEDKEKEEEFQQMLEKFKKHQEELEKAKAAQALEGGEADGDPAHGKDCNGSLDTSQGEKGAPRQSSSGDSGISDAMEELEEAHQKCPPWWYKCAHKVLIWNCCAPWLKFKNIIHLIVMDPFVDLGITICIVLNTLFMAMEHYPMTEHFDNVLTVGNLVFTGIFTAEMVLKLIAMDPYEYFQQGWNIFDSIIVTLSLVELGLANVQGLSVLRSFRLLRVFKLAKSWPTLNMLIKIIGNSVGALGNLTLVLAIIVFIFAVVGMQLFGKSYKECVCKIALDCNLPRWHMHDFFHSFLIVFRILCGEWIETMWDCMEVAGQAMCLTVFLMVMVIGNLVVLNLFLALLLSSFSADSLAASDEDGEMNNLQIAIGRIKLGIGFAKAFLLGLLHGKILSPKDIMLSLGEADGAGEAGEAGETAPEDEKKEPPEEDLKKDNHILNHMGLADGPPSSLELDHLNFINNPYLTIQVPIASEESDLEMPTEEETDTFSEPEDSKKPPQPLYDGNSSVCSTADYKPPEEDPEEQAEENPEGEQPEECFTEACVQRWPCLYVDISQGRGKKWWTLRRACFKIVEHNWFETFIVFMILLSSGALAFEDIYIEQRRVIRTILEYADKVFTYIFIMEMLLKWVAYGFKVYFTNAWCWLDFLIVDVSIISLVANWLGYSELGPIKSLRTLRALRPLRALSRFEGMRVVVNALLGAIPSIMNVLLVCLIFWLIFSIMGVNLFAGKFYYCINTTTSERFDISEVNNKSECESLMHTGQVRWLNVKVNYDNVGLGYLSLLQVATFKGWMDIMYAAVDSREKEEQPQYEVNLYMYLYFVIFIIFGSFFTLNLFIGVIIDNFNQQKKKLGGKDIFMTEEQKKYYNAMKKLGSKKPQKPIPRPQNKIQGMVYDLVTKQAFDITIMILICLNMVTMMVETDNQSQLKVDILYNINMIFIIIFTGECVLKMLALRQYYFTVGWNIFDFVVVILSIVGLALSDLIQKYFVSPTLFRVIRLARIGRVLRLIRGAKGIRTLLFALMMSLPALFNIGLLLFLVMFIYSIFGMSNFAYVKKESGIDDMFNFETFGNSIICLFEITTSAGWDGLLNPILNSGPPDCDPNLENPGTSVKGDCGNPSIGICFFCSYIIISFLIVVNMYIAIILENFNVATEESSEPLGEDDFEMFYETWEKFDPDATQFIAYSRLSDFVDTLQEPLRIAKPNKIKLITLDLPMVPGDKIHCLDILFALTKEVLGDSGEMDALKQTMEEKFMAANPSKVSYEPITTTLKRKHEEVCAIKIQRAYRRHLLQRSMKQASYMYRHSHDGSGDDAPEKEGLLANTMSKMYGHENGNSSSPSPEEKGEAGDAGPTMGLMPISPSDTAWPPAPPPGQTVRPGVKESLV

SMILES | % of control specific binding (BB (non-selective)) [%] | % of control specific binding (Cl- channel (GABA-gated)) [%] | % of control specific binding (GABA (non-selective)) [%] | % of control specific binding (KV channel) [%] | % of control specific binding (P2X) [%] | % of control specific binding (P2Y) [%] | % of control specific binding (PCP) [%] | % of control specific binding (SKCa channel) [%] | Inhibition type (CYP1A2) | Ki (CYP1A2) [µM] | % inhibition of 500 µM concentration (CYP1A2; 500 µM, substrate at 2 µM) | Inhibition type (CYP2C9) | % inhibition of 500 µM concentration (CYP2C9; 500 µM, substrate at 400 µM) | Inhibition type (CYP2E1) | % inhibition of 500 µM concentration (CYP2E1; 500 µM, substrate at 500.0 µM) | IC50 (hNav1.4 sodium channel; 10 Hz) [µM] | IC50 (hNav1.4 sodium channel; Inactivated state) [µM] | IC50 (hNav1.4 sodium channel; Tonic block) [µM]
CCC(CO)NCCOc1c(C)cccc1Cl (stereo not drawn) [Compound 4, R,S-2-((2-(2-chloro-6-methylphenoxy)ethyl)amino)butan-1-ol] | 104.6 | 99.6 | 109.3 | 104.2 | 100.6 | 102.2 | 72.6 | 90.5 | Mixed/competitive | 23 | 65 (substrate at 2 µM) % | Slight inhibition | 19 (substrate at 400 µM) % | Slight inhibition | 17 (substrate at 500.0 µM) % |  |  | 
CCC(CO)NCCOc1c(C)cccc1Cl (stereo not drawn) [KM-408, R,S-2-((2-(2-chloro-6-methylphenoxy)ethyl)amino)butan-1-ol hydrochloride] |  |  |  |  |  |  |  |  |  |  |  |  |  |  |  | 8.17 | < 10 | 68
